Tests used:
fascin = fascin (Homo sapiens, UniProt Q16658); experiment: Chamber migration of fascin siRNA-treated 4T1 cells rescued with human fascin; type: cell-based; design: expressed in transfected cells; host or cells: 4T1 mouse mammary tumor cells treated with mouse fascin siRNA 2; settings: human fascin in fascin siRNA-treated 4T1 cells
Experimental: Boyden Chamber Cell Migration Assay. Cells (5×10^4) suspended in starvation medium were added to the upper chamber of an insert (6.5 mm diameter, 8-micrometer pore size, Becton Dickenson), and the insert was placed in a 24-well dish containing starvation medium with or without 10% FBS (Yang et al. 2005, Shan et al. 2006). When used, inhibitors were added to both chambers. Migration assays were carried out for 4-6 hours and cells were fixed with 3.7% formaldehyde. Cells were stained with crystal violet staining solution, and cells on the upper side of the insert were removed with a cotton swab. Three randomly selected fields (10× objectives) on the lower side of the insert were photographed, and the migrated cells were counted. The migration was expressed as either the average number of migrated cells in a field or as percentage of migrated cells in positive control. Percentage was calculated with the formula P=100×(M−Mnc)/Mpc, where P is the percentage of migrated cells, M is the number of migrated cells, Mnc is the number of migrated cells in negative controls, and Mpc is the number of migrated cells in positive controls.

villin = molecular target: T1, villin (Homo sapiens, UniProt P09327); experiment: Binding of macroketone to villin in vitro
T1 sequence (P09327 1-827): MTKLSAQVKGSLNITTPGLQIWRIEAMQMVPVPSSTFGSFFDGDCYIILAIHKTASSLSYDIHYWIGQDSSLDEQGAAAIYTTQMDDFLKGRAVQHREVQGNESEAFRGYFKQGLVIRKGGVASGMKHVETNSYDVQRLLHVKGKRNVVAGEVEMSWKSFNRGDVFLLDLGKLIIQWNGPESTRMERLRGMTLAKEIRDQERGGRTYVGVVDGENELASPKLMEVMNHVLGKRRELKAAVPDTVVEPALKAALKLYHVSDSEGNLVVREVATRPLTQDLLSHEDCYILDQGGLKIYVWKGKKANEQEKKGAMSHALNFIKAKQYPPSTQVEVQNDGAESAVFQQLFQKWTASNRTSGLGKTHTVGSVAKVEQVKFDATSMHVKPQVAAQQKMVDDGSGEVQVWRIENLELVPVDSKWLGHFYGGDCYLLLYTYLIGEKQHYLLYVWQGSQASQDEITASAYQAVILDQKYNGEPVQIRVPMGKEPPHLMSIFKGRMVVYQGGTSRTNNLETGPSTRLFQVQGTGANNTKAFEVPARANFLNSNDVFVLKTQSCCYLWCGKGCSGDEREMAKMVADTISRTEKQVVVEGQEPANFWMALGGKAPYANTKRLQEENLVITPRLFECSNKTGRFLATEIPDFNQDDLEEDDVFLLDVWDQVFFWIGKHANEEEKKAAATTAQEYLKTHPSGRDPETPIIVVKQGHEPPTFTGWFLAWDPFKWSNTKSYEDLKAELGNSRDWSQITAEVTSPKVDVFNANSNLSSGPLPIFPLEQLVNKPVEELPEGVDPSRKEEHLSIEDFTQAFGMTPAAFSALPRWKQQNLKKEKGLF

[1] = system: mouse breast tumor 4T1 cells; experiment: Wound-healing assay, serum-induced migration of 4T1 cells; type: cell-based; settings: 2 μM
Experimental: Cells. Mouse 4T1 mammary tumor cells and human MDA-MB-231 breast tumor cells were obtained from ATCC and have been described previously (Shan et al. 2005, Yang et al. 2005). 4T1 cells were cultured in RPMI 1640 medium supplemented with 10% FBS. MDA-MB-231 cells were cultured in DMEM supplemented with 10% FBS. Wound-healing assay. The wound-healing assay involves observing whether confluent cells can migrate across a scrape or wound in the cell layer. Cell migration assays were performed as described previously (Yang et al. 2005, Shan et al 2006). Tumor cells were plated in a 24-well plate coated with gelatin in standard media. After the cells grew to confluence, wounds were made in the confluent layer of cell using a sterile instrument such as a sterile pipette tip. The cells were washed with Phosphate Buffered Saline (PBS) or other sterile solutions and then the migration was induced by adding medium supplemented with 10% FBS. When the wound for the positive control closed, cells were fixed with 3.7% formaldehyde and stained with crystal violet staining solution. […] Photographs several random regions of the filter facing the second chamber are taken and the number of cells counted to calculate the average number of cells that had transmigrated.

Structure (SMILES): COC1C=CCCCCC(=O)CCC(C)=CC(C)C1O (stereo not drawn) [macroketone, Migrastatin ketone]
- sensitivity of rescued migration (fascin): sensitive
- binding to villin in vitro (villin): did not bind
- inhibition of serum-induced migration (wound-healing) [1]: inhibited the migration

Source: patent US20100297109A1, “METHODS FOR INHIBITING FASCIN” (Cornell University, priority 2007, published 2010)
